Columns and labels:
[1] = test system: Radical scavenging activity; assay: Antioxidant activity assessed as DPPH radical scavenging activity after 48 hrs; format: functional
[2] = test system: Radical scavenging activity; assay: Antioxidant activity assessed as DPPH radical scavenging activity after 30 mins; format: functional

IC50 [1] | SMILES | Activity [2]
362 µM | COc1cc2c3c(c1OC)-c1ccccc1[C@H](OC(C)=O)[C@H]3N(C(C)=O)CC2 | < 10%
518 µM | CC(=O)O[C@H]1c2ccccc2-c2c3c(cc4c2[C@@H]1N(C(C)=O)CC4)OCO3 | < 10%
